Data as given in patent publication US5574012A, “Analogs of hirudin having anti-platelet activity” (Merrell Pharmaceuticals Inc., priority 1995, dated 1996).

Experiments:
platelets = assay: Dog antiplatelet IC50; assay type: cell-based
thrombin = thrombin (Bos taurus, UniProt P00735); assay: biochemical; settings: bovine; read-out: Bovine Antithrombin IC50

Row | IC50 (platelets) [µM] | Compound | IC50 (thrombin) [µM]
1 | 250 | CC[C@H](C)[C@H](NC(=O)[C@@H]1CCCN1C(=O)[C@H](CCC(=O)O)NC(=O)[C@H](Cc1c[nH]c2ccccc12)NC(=O)[C@H](CC(=O)O)NC(=O)CNC(=O)CCCCN)C(=O)N1CCC[C@H]1C(=O)N[C@@H](CCC(=O)O)C(=O)N[C@@H](CCC(=O)O)C(=O)N[C@@H](C)C(=O)N[C@@H](CC1CCCCC1)C(=O)N[C@H](CCC(=O)O)C(=O)O [Example 2] | –
2 | – | CC[C@H](C)[C@H](NC(=O)[C@@H]1CCCN1C(=O)[C@H](CCC(=O)O)NC(=O)[C@H](Cc1c[nH]c2ccccc12)NC(=O)[C@H](CC(=O)O)NC(=O)CNC(=O)[C@@H](N)CCCNC(=N)N)C(=O)N1CCC[C@H]1C(=O)N[C@@H](CCC(=O)O)C(=O)N[C@@H](CCC(=O)O)C(=O)N[C@@H](C)C(=O)N[C@@H](CC1CCCCC1)C(=O)N[C@H](CCC(=O)O)C(=O)O [Example 3] | 2.8
